Patent US10023565B2, “N,N′ substituted piperidinamine compounds, and preparation method and usage thereof” (Institute of Pharmacology and Toxicology Academy of …, priority 2013, dated 2018)
Values joined by “and” are separate entries in the source; they are usually repeats but may differ in a detail not shown here. Equal values may be shown once. Read-outs that look alike come from different tables or passages of the source.

Assay: Mice pharmacokinetic evaluation (LC-MS/MS of plasma)
Format: in vivo, ICR mice
Conditions: for in vivo absorption and elimination: intragastric administration to mice
Method: Mice pharmacokinetic evaluation of the compound of Example 36 according to the method described below
ICR mice, SPS grade, male, weighed […], license number SCXK (Beijing) 2012-0001, purchased from Beijing Vital River Laboratory Animal Technology Co. Ltd.
Chromatographic conditions: Analytical column: Capcell Pak MG, 5 μm particle size, 50×2.0 mm I.D. (Shiseido Co.), connected with C18 guard column, 4×3.0 mm I.D. (PhenomenexCo., USA), column temperature 25° C., mobile phase: acetonitrile −2 mM ammonium acetate (65:35, v/v), flow rate 0.3 ml/min, internal standard: loratadine.
MS conditions: Electrospray ionization source (Turbo Ionspray source), positive ion mode detection; spray voltage 4500 V; source temperature 400° C.; nebulizer gas (NEB) 8; curtain gas (CUR) 10; collision gas (CAD) 4; scanning mode: multiple reaction monitoring (MRM), ion reactions for quantitative analysis: m/z 354.4→m/z 154.1 (Mol, CE 43 V) and m/z 383→m/z 337 (internal standard loratadine, CE 32 V), scanning time 150 msec.
To 50 μl of plasma, were added 10 μl of internal standard solution (125 ng/ml aqueous solution of loratadine), and 500 μl of n-hexane-dichloromethane-isopropanol (100:50:5, v/v/v); they were uniformly mixed, followed by vortexing for 3 min, and centrifuging for 10 min (3000 rpm); the supernatant was taken and blow dried with air streamat 40° C.; the residue was dissolved with 150 μl […], and subjected to LC-MS/MS analysis.
30 ICR male mice were randomly divided into […], five mices each group, including Mol 10 mg/kg oral group and 1.0 mg/kg tail intravenous injection group. For oral group, before administration, the animals were fasted for 12 h, with free access to water; 0.08, 0.25, 0.5, 1, 2, 4, 6, 8, 12 and 24 h after intragastrical administration, 0.1 ml of orbital venous sinus blood was taken, placed in anticoagulation tube containing heparin sodium, and subjected to 3000 g centrifugation for 15 min; and then, the plasma was taken and stored in a −20° C. refrigerator. […]
Pharmacokinetic parameters were calculated using non-compartment model of Winnonlin® software (Version 5.2.1, USA). Cmax is the measured maximum plasma concentration, Tmax is time to peak plasma concentration after oral administration, t1/2 is drug terminal elimination halflife, MRT is average residence time of drug in vivo, the area AUC0-t under plasma concentration—time curve is calculated by trapezoidal method.
Bioavailability is calculated as follows: […]
AUC: Area (h*ng/ml) under the curve; D: dose (mg/kg)

[1] = IV 1.0 mg/kg, individual mice 4-6, listed as Mol, 1 mg/kg
[2] = Po 10 mg/kg, individual mice 1-3, listed as Mol, 10 mg/kg
[3] = male, ICR, mouse, plasma, iv, 1 mg/kg, IV 1.0 mg/kg, Mean ± SD, n = 3
[4] = male, ICR, mouse, plasma, iv, 1 mg/kg, IV 1.0 mg/kg, individual mice 4-6

In the case of CSc1nccc(N2CCC(N(C)Cc3ccc(C#N)cc3)CC2)n1 [Example 36, N-methyl-N-(4-cyanobenzyl)-N-[1-(2-methylthiopyrimidin-4-yl)piperidin-4-yl]amine], the Ke (IV 1.0 mg/kg, Mean ± SD, n = 3) is reported as 0.97 ± 0.88 h⁻¹, the “AUC0-∞” value [1] is reported as 37.81 ng·h/mL and 58.27 ng·h/mL and the Cmax [1] is reported as 63.90 ng/mL and 71.35 ng/mL. For the same compound, the Ke [1] was 1.98 h⁻¹ and 0.51 h⁻¹ and 0.43 h⁻¹, the MRT0-t [1] was 0.42 h and 1.02 h and 2.40 h and the “MRT0-∞” value [1] was 0.46 h and 1.35 h and 2.71 h. The Tmax [1] was 0.03 h (2×) and 0.08 h, the t1/2 [1] was 0.35 h and 1.37 h and 1.62 h and the “F (bioavailability)” value (Po 10 mg/kg vs IV 1.0 mg/kg, individual mice 1-3, listed as Mol) was 43.20% and 63.94% and 59.39%. For the same compound, the Ke (Po 10 mg/kg, Mean ± SD, n = 3) was 0.43 ± 0.33 h⁻¹, the Cmax (Po 10 mg/kg, Mean ± SD, n = 3, listed as Mol, 10 mg/kg) was 260.2 ± 63.19 ng/mL and the “AUC0-∞” value [2] was 317.86 ng·h/mL and 305.15 ng·h/mL. For the same compound, the Cmax [2] was 260.48 ng/mL and 323.37 ng/mL, the Ke [2] was 0.40 h⁻¹ and 0.77 h⁻¹ and 0.13 h⁻¹ and the MRT0-t [2] was 1.26 h and 0.93 h and 2.56 h. The “MRT0-∞” value [2] was 1.34 h and 0.95 h and 3.57 h, the Tmax [2] was 0.08 h and 1.00 h and 0.25 h and the t1/2 [2] was 1.74 h and 0.90 h and 5.53 h. For the same compound, the “in vivo absorption and elimination” value (10 mg/kg) was “in vivo absorption and elimination of the compound both are faster”, the “in vivo absorption and elimination” value (10 mg/kg, listed as Mol) was “the vivo absorption and elimination after intragastrical administration to mice both were quite fast” and the “Plasma concentration of active compound” value (intravenous 1.0 mg/kg, 0.03 h, individual mice 4-6, listed as Mol, 1 mg/kg) was 99.34 ng/mL and 9.23 ng/mL and 71.35 ng/mL. The “Plasma concentration of active compound” value (intravenous 1.0 mg/kg, 0.08 h, individual mice 4-6, listed as Mol, 1 mg/kg) was 63.90 ng/mL and 63.03 ng/mL, the “Plasma concentration of active compound” value (intravenous 1.0 mg/kg, 0.17 h, individual mice 4-6, listed as Mol, 1 mg/kg) was 56.30 ng/mL and 52.58 ng/mL and the “Plasma concentration of active compound” value (intravenous 1.0 mg/kg, 0.5 h, individual mice 4-6, listed as Mol, 1 mg/kg) was 48.72 ng/mL and 24.29 ng/mL and 21.45 ng/mL. For the same compound, the “Plasma concentration of active compound” value (intravenous 1.0 mg/kg, 1.0 h, individual mice 4-6, listed as Mol, 1 mg/kg) was 10.10 ng/mL and 3.94 ng/mL and 7.02 ng/mL, the “Plasma concentration of active compound” value (intravenous 1.0 mg/kg, 2.0 h, individual mice 4-6, listed as Mol, 1 mg/kg) was 2.35 ng/mL and 0.95 ng/mL and 1.99 ng/mL and the “Plasma concentration of active compound” value (intravenous 1.0 mg/kg, 4.0 h, individual mice 4-6, listed as Mol, 1 mg/kg) was 2.23 ng/mL. For the same compound, the “Plasma concentration of active compound” value (intravenous 1.0 mg/kg, 8.0 h, individual mice 4-6, listed as Mol, 1 mg/kg) was 0.98 ng/mL, the AUC(0-inf) [3] was 51.2 ± 11.6 ng·h/mL and the AUC(0-t) [3] was 49.6 ± 11.4 ng·h/mL. For the same compound, the half-life [3] was 1.11 ± 0.67 h, the Cmax (male, ICR, mouse, plasma, iv, 1 mg/kg, IV 1.0 mg/kg, Mean ± SD, n = 3, read-out: Cmax) was 78.1 ± 18.7 ng/mL and the MRT last (male, ICR, mouse, plasma, iv, 1 mg/kg, IV 1.0 mg/kg, Mean ± SD, n = 3, read-out: MRT0-t) was 1.28 ± 1.01 h. The MRT inf (male, ICR, mouse, plasma, iv, 1 mg/kg, IV 1.0 mg/kg, Mean ± SD, n = 3, read-out: MRT0-∞) was 1.51 ± 1.13 h, the Tmax (male, ICR, mouse, plasma, iv, 1 mg/kg, IV 1.0 mg/kg, Mean ± SD, n = 3, read-out: Tmax) was 0.05 ± 0.03 h and the AUC(0-inf) [4] was 57.6 ng·h/mL. It also gave an AUC(0-t) [4] of 56.4 ng·h/mL, a Cmax (male, ICR, mouse, plasma, iv, 1 mg/kg, IV 1.0 mg/kg, individual mice 4-6, read-out: Cmax) of 99.3 ng/mL and a concentration at 0.03 h (male, ICR, mouse, plasma, iv, 1 mg/kg, intravenous 1.0 mg/kg, 0.03 h, Mean, read-out: Plasma concentration of active compound) of 60 ng/mL. For the same compound, the concentration at 0.08 h (male, ICR, mouse, plasma, iv, 1 mg/kg, intravenous 1.0 mg/kg, 0.08 h, Mean, read-out: Plasma concentration of active compound) was 74.5 ng/mL and the concentration at 0.08 h (male, ICR, mouse, plasma, iv, 1 mg/kg, intravenous 1.0 mg/kg, 0.08 h, individual mice 4-6, read-out: Plasma concentration of active compound) was 96.6 ng/mL.
